Legend:
[1] = Interaction of folic acid with soy protein, soy polysaccharide or complex nanogel at pH 7.4; free folic acid isolated by ultrafiltration; assay type: physicochemical; conditions: FA concentration in feed 0.5 mM
Procedure: Considering the solubility of folic acid, the interaction at pH 7.4 was investigated. The individual protein solution, individual polysaccharide solution, and the protein/polysaccharide complex nanogel solution were adjusted to pH 7.4 first. Then the folic acid, dissolved in 10 mM phosphate buffer pH 7.4, was added and the mixture was incubated under stirring at room temperature overnight. The final protein concentration in the mixture was 4 mg/ml and polysaccharide concentration was 12 mg/ml. The free folic acid in the mixture was isolated by a high-flow ultrafiltration membrane (cutoff molecular weight 3 kDa, MicroconYM-3, Millipore), and was collected in the ultrafiltrate. Individual folic acid solution was also passed through the ultrafiltration membrane; 97% of the folic acid (Table 1) in the ultrafiltrate confirms the recovery of the folic acid. The individual protein, individual polysaccharide, and protein/polysaccharide complex nanogel solutions were also passed through the ultrafiltration membrane; their UV spectra of the ultrafiltrates (FIG. 1) show the absorbance at UV region, indicating small peptides in the ultrafiltrates. The FA concentration in the ultrafiltrate was calculated by deducting the 280 nm absorbance shown in FIG. 1 from the 280 nm absorbance of the ultrafiltrate.

[2] = UV degradation of folic acid (450 nm fluorescence before and after UV radiation); assay type: physicochemical; conditions: for Degradation degree / IUV/I (ratio of FA fluorescence intensity after UV radiation to before): UV radiation pH 7.4
Text: As mentioned above, folic acid is sensitive to UV radiation. Because of intramolecular fluorescence quenching, folic acid has an extremely low fluorescence quantum yield, approximately 0.005. Pterins, which is formed after the cleavage of the C9-N10 bond in the folic acid molecule, has an increased fluorescence peak around 445 nm. The fluorescence quantum yield of 6-formyl pterin (FPT) is nearly 0.1 and that of pterin-6-carboxylic acid (PCA) is about 0.2. The fluorescence in the region of 445 nm increases with the formation of FPT as a result of the C9-N10 bond cleavage followed by the photo-induced conversion of FPT to PCA [M. K. Off et al., Journal of Photochemistry and Photobiology B: Biology 80 (2005) 47-55].
The UV degradation of folic acid was investigated in this study. The folic acid/protein/polysaccharide nanogel solution at pH 4.0 containing 0.25 or 0.5 mM folic acid was placed in a 7 ml glass bottle at a distance of 30 cm from a UV radiometer (500 w, peak A=365 nm) for 1 h. Individual folic acid dissolved in 10 mM pH 7.4 phosphate buffer with FA concentration of 0.25 or 0.5 mM was also investigated. The mixture of 5 mg/ml protein and 0.25 mM folic acid at pH 7.4, and the mixture of 15 mg/ml polysaccharide and 0.25 mM folic acid at pH 7.4 were also investigated. After the UV radiation, the folic acid/protein/polysaccharide nanogel solution was adjusted to pH 7.4 to release folic acid. The released folic acid in the solution was isolated by ultrafiltration and was analyzed as described below. After 10 and 20 times dilution for 0.25 and 0.5 mM folic acid, respectively, the 450 nm fluorescence intensity of the ultrafiltrate excited at 348 nm was measured.
For individual folic acid solution, after the UV radiation, the fluorescence intensity at 450 nm increases 89 and 85 times when folic acid concentration was 0.25 and 0.5 mM, respectively. The average 87 times of the increase for the fluorescence intensity after the UV radiation indicates the degradation of the folic acid inside the glass bottle. […] Compared with the individual folic acid, the degradation of folic acid reduces to 30% and 22% in the presence of polysaccharide and protein at pH 7.4, respectively. Folic acid/protein/polysaccharide nanogels can effectively protect the folic acid from the degradation at pH 4.0; only 12% of the loaded folic acid was degraded after the same UV radiation. […] The released and isolated folic acid from folic acid/protein/polysaccharide nanogels was radiated by UV light. After the same radiation, the folic acid fluorescence changed as the folic acid solution prepared at pH 7.4 directly.
The UV degradation of folic acid was investigated. Compared with the individual folic acid, the degradation of folic acid reduces to 19% in the presence of pea protein (Table 4). Folic acid/pea protein/polysaccharide nanogels can effectively protect the folic acid from the degradation at pH 4.0; only 13% of the loaded folic acid was degraded after the same UV radiation.

[3] = cited from earlier work
[4] = Table 3, FA in feed 0.25 mM, UV 1 h
[5] = Table 3, FA in feed 0.5 mM, UV 1 h

SMILES	FA concentration in ultrafiltration [1]	Recovered FA in ultrafiltration [1]	Recovered FA in ultrafiltration ([1]; listed as folic acid)	Degradation degree [2, 4]	IUV/I (ratio of FA fluorescence intensity after UV radiation to before) [2, 4]	IUV/I (ratio of FA fluorescence intensity after UV radiation to before) ([2]; Table 3, FA in feed 0.25 mM, UV 1 h, listed as folic acid)	Degradation degree [2, 5]	IUV/I (ratio of FA fluorescence intensity after UV radiation to before) [2, 5]	IUV/I (ratio of FA fluorescence intensity after UV radiation to before) ([2]; Table 3, FA in feed 0.5 mM, UV 1 h, listed as folic acid)	Degradation degree ([2]; Table 4, FA in feed 0.25 mM)	IUV/I (ratio of FA fluorescence intensity after UV radiation to before) ([2]; Table 4, FA in feed 0.25 mM)	average increase of the fluorescence intensity after the UV radiation ([2]; average of 0.25 and 0.5 mM FA, pH 7.4)	pKa [3]
Nc1nc2ncc(CNc3ccc(C(=O)N[C@@H](CCC(=O)O)C(=O)O)cc3)nc2c(=O)[nH]1 [FA, folic acid]	0.485 ± 0.01 mM	97 ± 2%	97%	100%	89 ± 3	89	100%	85 ± 2	85	100%	91	87 times	4.7
O=C(O)CCCC[C@@H]1SC[C@@H]2NC(=O)N[C@@H]21 [biotin]													5.33

— patent publication US9661870B2, “Nanogel comprising water-soluble active ingredients” (DSM IP ASSETS B.V., priority 2012, dated 2017)
